Experimental data published in patent publication US8309593B2, “2-acylaminopropoanol-type glucosylceramide synthase inhibitors” (Genzyme Corporation, priority 2008, dated 2012).
Read-outs that look alike come from different tables or passages of the source.

Tested on: GM3
Test: GM3 Elisa assay
Assay type: cell-based
Conditions: read-out: IC50_uM_Mean
Procedure: B16-FO cells from ATCC (American Tissue Culture Collection) were grown in DMEM media (ATCC) with 10% Fetal Bovine Serum (Hyclone) and Pen/Step/Glutamine (Biowhittaker). 4000 cells per well were plated on collagen coated plates (BD) and allowed to attach for 6 hours in an incubator (37 degrees, 5% CO2). After 6 hours the compounds and controls were added to the wells, the plates mixed and returned to the incubator for 2 days. Day of assay the cells were fixed for 20 minutes with 1% formaldehyde and then washed with Tris Buffered Saline (TBS) 3 times, 150 μl of TBS was left in the wells and 50 μl of goat serum (Invitrogen) was added, the plates mixed and incubated for 1 hour at room temperature. The plates were flicked and the cells incubated with the monoclonal Antibody to GM3 (NeuAc) (Cosmo) for 45 minutes as room temperature. The plates were then washed 3 times with TBS, leaving 150 μl of TBS in the wells and Peroxidase AffinPure F (ab′) 2 frag Gt Anti-mouse IgM, μ Chain Specific (Jackson Immuno Research) was added in 50 μl, the plates mixed and incubated for 45 minutes at room temperature. The plates were washed 3 times with TBS, flicked and blotted and 100 μl of Quantablu (Pierce) was added to the wells and incubated for 1 hour then read on a Fluorometer at Ex 325 and Em 420. The data was then analyzed using standard programs.

[1] = 48 h, Table 1, B16-FO cells, 2 days with compound

Row | SMILES | IC50 (Table 3 (title: IC 50 Values)) [nM] | IC50 [1] [nM]
1 | O=C(CCCCCC(=O)c1ccc(F)cc1)N[C@H](CN1CCCC1)[C@@H](O)c1ccc2c(c1)OCCO2 [Compound 628] | ≤ 100 | 
2 | CCCCCCCC(=O)N[C@H](CN1CC[C@@H](F)C1)[C@H](O)c1ccc2c(c1)OCCO2 [Compound 504] | 100 to 1000 | 
3 | CCCCCCCCCCCCCCCC(=O)N[C@H](CN(C)C1CCCC1)C(O)c1ccc2c(c1)OCCO2 (some centres unmarked) [Compound 685] | 3000 to 10000 | 
4 | CCc1ccc(OCCC(=O)N[C@H](CN2CCCC2)[C@H](O)c2ccc3c(c2)OCCO3)cc1 [Compound 188, N-((1R,2R)-1-(2,3-dihydrobenzo[b][1,4]dioxin-6-yl)-1-hydroxy-3-(pyrrolidin-1-yl)propan-2-yl)-3-(4-ethylphenoxy)propanamide (2R,3R)-2,3-dihydroxysuccinate] |  | 100 to 1000
5 | O=C(CCCCCCOCC(F)(F)F)N[C@H](CN1CCCC1)[C@@H](O)c1ccc2c(c1)OCCO2 [Compound 634] | 100 to 1000 | 
6 | CCCCCCCCCCCCCCCCC(=O)N[C@H](CN(C)Cc1ccco1)[C@H](O)c1ccc2c(c1)OCCO2 [Compound 683] | 3000 to 10000 | 
7 | COc1ccc(OCCC(=O)N[C@H](CN2CCC[C@@H]2C)C(O)c2ccc3c(c2)OCCO3)cc1 (some centres unmarked) [Compound 526] | 100 to 1000 | 
8 | COC[C@H]1CCCN1C[C@@H](NC(=O)CCCCCC(=O)c1ccc(OC)cc1)[C@@H](O)c1ccc2c(c1)OCCO2 [Compound 539] | 3000 to 10000 | 
9 | COc1ccc(OCCC(=O)N[C@@H](CN2CCCC2)[C@@H](O)c2ccc3c(c2)OCCO3)cc1 [Compound 675] | 3000 to 10000 | 
10 | Cc1noc(CCCCC(=O)N[C@@H](CN2CCCC2)C(O)c2ccc3c(c2)OCCO3)n1 (some centres unmarked) [Compound 652] | 3000 to 10000 | 
11 | COc1ccc(C(=O)CCCCCC(=O)N[C@H](CN2[C@H](C)CC[C@@H]2C)[C@H](O)c2ccc3c(c2)OCCO3)cc1 [Compound 548] | 1000 to 3000 | 
12 | CC(C)(C)c1ccc(C(=O)CCCCCC(=O)N[C@H](CN2CCCC2)[C@H](O)c2ccc3c(c2)OCCO3)cc1 [Compound 160, 7-(4-tert-butylphenyl)-N((1R,2R)-1-(2,3-dihydrobenzo[β][1,4]dioxin-6-yl)-1-hydroxy-3-(pyrrolidin-1-yl)propan-2-yl)-7-oxoheptanamide] |  | 100 to 1000
13 | CCCCCCCC(=O)N[C@H](CN1CC[C@H](O)C1)[C@@H](O)c1ccc2c(c1)OCCO2 [Compound 515] | ≤ 100 | 
14 | O=C(CCC(=O)c1ccc(C(F)(F)F)cc1)N[C@H](CN1CCCC1)[C@H](O)c1ccc2c(c1)OCCO2 [Compound 176, N-((1R,2R)-1-(2,3-dihydrobenzo[β][1,4]dioxin-6-yl)-1-hydroxy-3-(pyrrolidin-1-yl)propan-2-yl)-4-oxo-4-(4-(trifluoromethyl)phenyl)butanamide (2S,3S)-2,3-dihydroxysuccinate] |  | ≤ 100
15 | CCCCCCCCCCCCCCCC(=O)N[C@H](CN(C)C(C)C)[C@H](O)c1ccc2c(c1)OCCO2 [Compound 684] | 100 to 1000 | 
16 | COc1ccc(C(=O)CCCCCC(=O)N[C@H](CN2CCCC2)[C@@H](O)c2ccc(OC(F)(F)F)cc2)cc1 [Compound 666] | 100 to 1000 | 
17 | CC(O)(CCCCCC(=O)N[C@H](CN1CCCC1)[C@@H](O)c1ccc2c(c1)OCCO2)C1CCCC1 (some centres unmarked) [Compound 633] | 100 to 1000 | 
18 | O=C(CCCCCC(=O)c1ccc(F)cc1)N[C@H](CN1CC[C@@H](F)C1)[C@@H](O)c1ccc2c(c1)OCCO2 [Compound 565] | ≤ 100 | 
19 | COc1ccc(OCCC(=O)N[C@H](CN2CCCC2)[C@H](O)c2ccc3c(c2)OCCO3)cc1 [Compound 61, N-((1R,2R)-1-(2,3-dihydrobenzo[β][1,4]dioxin-6-yl)-1-hydroxy-3-(pyrrolidin-1-yl)propan-2-yl)-3-(4-methoxyphenoxy)propanamide] |  | ≤ 100
20 | COc1ccc(C(=O)CCCCCC(=O)N[C@H](CN2C(C)CCC[C@H]2C)[C@@H](O)c2ccc3c(c2)OCCO3)cc1 (some centres unmarked) [Compound 602] | 3000 to 10000 | 
21 | O=C(N[C@H](CN1CCCC1)[C@H](O)c1ccc2c(c1)OCCO2)[C@H]1CC[C@@H](C(=O)c2ccc(F)cc2)C1 [Compound 635] | 3000 to 10000 | 

Row | SMILES | IC50 (Table 3 (title: IC 50 Values)) [nM] | IC50 [1] [nM]
22 | O=C(CCCOc1ccc(F)cc1)N[C@@H](CN1CC[C@H](O)C1)[C@H](O)c1ccc2c(c1)OCCO2 [Compound 656] | ≤ 100 | 
23 | CCCCOc1ccc([C@H](O)[C@@H](CN2CC[C@H](O)C2)NC(=O)CCCCCCCOC)cc1 [Compound 586] | ≤ 100 | 
24 | O=C(Cc1ccc(OC(F)(F)F)cc1)N[C@H](CN1CCCC1)[C@H](O)c1ccc(Cl)s1 [Compound 492] | 3000 to 10000 | 
25 | COc1ccc(OCC[C@H](O)N[C@H](CN2C(C)CCCC2C)C(O)c2ccc3c(c2)OCCO3)cc1 (some centres unmarked) [Compound 598] | 3000 to 10000 | 
26 | CC(=O)CCCCCC(=O)N[C@H](CN1CCCC1)[C@@H](O)c1ccc(OC(F)(F)F)cc1 [Compound 665] | 3000 to 10000 | 
27 | COc1cccc(CNC(=O)N[C@H](CN2CCCC2)[C@H](O)c2ccc3c(c2)OCCO3)c1 [Compound 80, 1-((1R,2R)-1-(2,3-dihydrobenzo[β][1,4]dioxin-6-yl)-1-hydroxy-3-(pyrrolidin-1-yl)propan-2-yl)-3-(3-methoxybenzyl)urea] |  | ≤ 100
28 | CCCCCCCC(=O)N[C@H](CN1CCCC1)[C@@H](O)c1ccc(OC(F)(F)F)cc1 [Compound 667] | 100 to 1000 | 
29 | O=C(CCCCCC1CCOCC1)N[C@H](CN1CCCC1)[C@@H](O)c1ccc2c(c1)OCCO2 [Compound 559] | 100 to 1000 | 
30 | CCCCCCCC(=O)N[C@H](CN1CC[C@@H](O)C1)[C@@H](O)c1ccc2c(c1)OCCO2 [Compound 512] | 1000 to 3000 | 
31 | O=C(CCCCCC(=O)c1ccc(F)cc1)NC(CN1CC[C@H](O)C1)[C@H](O)c1ccc2c(c1)OCCO2 (some centres unmarked) [Compound 653] | ≤ 100 | 
32 | CCCCOc1ccc([C@H](O)[C@@H](CN2CC[C@@H](F)C2)NC(=O)CCCCCCCOC)cc1 [Compound 584] | 100 to 1000 | 
33 | CCCCOc1ccc([C@@H](O)[C@@H](CN2CCC(F)C2)NC(=O)CCCCC(=O)c2ccc(F)cc2)cc1 (some centres unmarked) [Compound 658] | 100 to 1000 | 
34 | CCCCCCCC(=O)N[C@H](CN1CCC[C@H]1C)C(O)c1ccc2c(c1)OCCO2 (some centres unmarked) [Compound 530] | 3000 to 10000 | 
35 | COC[C@H]1CCCN1C[C@@H](NC(=O)CCOc1ccc(OC)cc1)[C@@H](O)c1ccc2c(c1)OCCO2 [Compound 538] | 3000 to 10000 | 
36 | COc1ccc(C(=O)CCCCCC(=O)N[C@H](CN2CC3CC3C2)[C@@H](O)c2ccc3c(c2)OCCO3)cc1 (some centres unmarked) [Compound 537] | ≤ 100 | 
37 | CC(C)Oc1ccc(C(=O)CCC(=O)N[C@H](CN2CCCC2)[C@H](O)c2ccc3c(c2)OCCO3)cc1 [Compound 162, N-((1R,2R)-1-(2,3-dihydrobenzo[β][1,4]dioxin-6-yl)-1-hydroxy-3-(pyrrolidin-1-yl)propan-2-yl)-4-(4-isopropoxyphenyl)-4-oxobutanamide] |  | ≤ 100
38 | Cc1nccn1C[C@@H](NC(=O)CCCCCC(=O)c1ccc(F)cc1)[C@@H](O)c1ccc2c(c1)OCCO2 [Compound 569] | 3000 to 10000 | 
39 | COc1ccc(OCCC(=O)N[C@H](CN2CCC[C@H]2C)C(O)c2ccc3c(c2)OCCO3)cc1 (some centres unmarked) [Compound 528] | 1000 to 3000 | 
40 | COc1ccc(C(=O)CCCCCC(=O)NC(CN2CC[C@@H](F)C2)[C@H](O)c2ccc3c(c2)OCCO3)cc1 (some centres unmarked) [Compound 531] | ≤ 100 | 
41 | O=C(CCCCS(=O)(=O)C1CCCCC1)N[C@H](CN1CC[C@@H](F)C1)[C@@H](O)c1ccc(OCc2ccccc2)cc1 [Compound 572] | 100 to 1000 | 
